Experimental data taken from the supplement of paper PMC13380429.

Legend:
Conditions in all cases: 72 h
HepG2 [1] = experiment: cell viability relative to DMSO; higher = less toxic
Vero E6 [2] = experiment: as above
Calu-3 [3] = experiment: as above
U2OS [4] = experiment: as above
Caco-2 [5] = experiment: as above
HepG2 [6] = experiment: drug sensitivity score (DSS) for viability; higher = more toxic; extreme values may be limits of the assay
Vero E6 [7] = experiment: as above
Calu-3 [8] = experiment: as above
U2OS [9] = experiment: as above
Caco-2 [10] = experiment: as above
HepG2 [11] = experiment: relative viability EC50 (midpoint between 100% and the lowest measured viability); higher = less toxic
Vero E6 [12] = experiment: as above
Calu-3 [13] = experiment: as above
U2OS [14] = experiment: as above
Caco-2 [15] = experiment: as above

Row | SMILES | cell viability (HepG2 [1]; 1 nM) | cell viability (HepG2 [1]; 10 nM) | cell viability (HepG2 [1]; 100 nM) | cell viability (HepG2 [1]; 1000 nM) | cell viability (HepG2 [1]; 10000 nM) | cell viability (Vero E6 [2]; 1 nM) | cell viability (Vero E6 [2]; 10 nM) | cell viability (Vero E6 [2]; 100 nM) | cell viability (Vero E6 [2]; 1000 nM) | cell viability (Vero E6 [2]; 10000 nM) | cell viability (Calu-3 [3]; 1 nM) | cell viability (Calu-3 [3]; 10 nM) | cell viability (Calu-3 [3]; 100 nM) | cell viability (Calu-3 [3]; 1000 nM) | cell viability (Calu-3 [3]; 10000 nM) | cell viability (U2OS [4]; 1 nM) | cell viability (U2OS [4]; 10 nM) | cell viability (U2OS [4]; 100 nM) | cell viability (U2OS [4]; 1000 nM) | cell viability (U2OS [4]; 10000 nM) | cell viability (Caco-2 [5]; 1 nM) | cell viability (Caco-2 [5]; 10 nM) | cell viability (Caco-2 [5]; 100 nM) | cell viability (Caco-2 [5]; 1000 nM) | cell viability (Caco-2 [5]; 10000 nM) | drug sensitivity score (HepG2 [6]) | drug sensitivity score (Vero E6 [7]) | drug sensitivity score (Calu-3 [8]) | drug sensitivity score (U2OS [9]) | drug sensitivity score (Caco-2 [10]) | relative viability EC50 (HepG2 [11]) | relative viability EC50 (Vero E6 [12]) | relative viability EC50 (Calu-3 [13]) | relative viability EC50 (U2OS [14]) | relative viability EC50 (Caco-2 [15])
1 | O=C(O)C1=CO[C@@H](O[C@@H]2O[C@H](CO)[C@@H](O)[C@H](O)[C@H]2O)[C@@H]2C(CO)=CC[C@H]12 [Geniposidic acid] | 110% | 105% | 102% | 111% | 94.6% | 100% | 107% | 97.5% | 104% | 101% | 98.7% | 103% | 95.4% | 113% | 108% | 102% | 96.2% | 101% | 94.5% | 101% | 117% | 101% | 106% | 103% | 96.3% | 0 | 0 | 0 | 0 | 0 | > 10 µM | > 10 µM | > 10 µM | > 10 µM | > 10 µM
2 | CCC(=O)OCN1C(=O)C=CC1=O [MIRA-1] | 104% | 95.9% | 106% | 106% | 103% | 95.8% | 91.8% | 99.8% | 92% | 107% | 90.6% | 108% | 104% | 101% | 98.9% | 99.3% | 99.4% | 102% | 102% | 105% | 90.6% | 97.5% | 87.8% | 94.7% | 112% | 0 | 0 | 0 | 0 | 0 | > 10 µM | > 10 µM | > 10 µM | > 10 µM | > 10 µM
3 | CCCCCCCCCCCCCCCC[n+]1ccn(Cc2ccccc2)c1C [NH125] | 96.3% | 106% | 97.2% | 32.6% | 0% | 104% | 106% | 99.5% | 85.2% | 0.3% | 99.2% | 99.1% | 89.7% | 82.1% | 23.3% | 105% | 93.7% | 95.9% | 57.1% | 0.1% | 100% | 92.4% | 97% | 59.9% | 0.8% | 13.6 | 8 | 7 | 10.7 | 10.5 | 0.682 µM | 1.99 µM | 1.64 µM | 1.16 µM | 1.2 µM
4 | N#CC(c1ccnc(OCc2ccc(CN3CCOCC3)cc2)n1)c1nc2ccccc2s1 (stereo not given) [PGL5001] | 98.4% | 102% | 104% | 89.6% | 80.9% | 99.8% | 98.3% | 93.1% | 101% | 98.8% | 112% | 104% | 107% | 98.5% | 102% | 102% | 97.5% | 98.7% | 103% | 92% | 103% | 86% | 98.4% | 97% | 83.5% | 1.5 | 0 | 0 | 0 | 0.3 | > 10 µM | > 10 µM | > 10 µM | > 10 µM | > 10 µM
5 | CCCCCCCCCCCCc1ccc(S(=O)(=O)Nc2nncs2)cc1 [PHT-427] | 93.6% | 106% | 88.1% | 102% | 92.6% | 106% | 108% | 102% | 97.8% | 104% | 96.4% | 94.9% | 95.6% | 99.6% | 99% | 102% | 97.5% | 98.2% | 98.7% | 99.9% | 95.2% | 95.3% | 101% | 98.1% | 97.4% | 0 | 0 | 0 | 0 | 0 | > 10 µM | > 10 µM | > 10 µM | > 10 µM | > 10 µM
6 | N[C@@H](CC(=O)N1CCn2c(nnc2C(F)(F)F)C1)Cc1n[nH]c2c(F)c(F)ccc12 [PK-44] | 102% | 92% | 114% | 91.5% | 91% | 102% | 103% | 104% | 98.4% | 100% | 95.3% | 96.6% | 95.8% | 100% | 100% | 102% | 100% | 99.4% | 104% | 99.7% | 87.8% | 96.3% | 102% | 105% | 92.4% | 0 | 0 | 0 | 0 | 0 | > 10 µM | > 10 µM | > 10 µM | > 10 µM | > 10 µM
7 | O=[N+]([O-])c1cc(Cl)ccc1S(=O)(=O)N1CCN(Cc2ccccc2)CC1 [RN-1747] | 105% | 92.9% | 104% | 86.9% | 104% | 99.5% | 92.2% | 93.4% | 96.1% | 102% | 96.4% | 104% | 94.6% | 102% | 106% | 94.6% | 100% | 96.2% | 102% | 106% | 94.3% | 94% | 96.2% | 106% | 99.9% | 0 | 0 | 0 | 0 | 0 | > 10 µM | > 10 µM | > 10 µM | > 10 µM | > 10 µM
8 | NC(=O)c1[nH]cnc1O [SM-108] | 95% | 93.9% | 95.8% | 102% | 98.7% | 102% | 108% | 99.7% | 103% | 100% | 96.2% | 89% | 101% | 107% | 99.8% | 100% | 95.7% | 104% | 96.6% | 104% | 91.2% | 101% | 102% | 104% | 97.9% | 0 | 0 | 0 | 0 | 0 | > 10 µM | > 10 µM | > 10 µM | > 10 µM | > 10 µM
9 | CCc1c2c(nc3ccc(O)cc13)-c1cc3c(c(=O)n1C2)COC(=O)[C@]3(O)CC [SN-38] | 86.6% | 48.6% | 29.5% | 5.6% | 2.4% | 102% | 101% | 71.2% | 58.3% | 9.6% | 112% | 85.9% | 54% | 25.1% | 28.8% | 107% | 102% | 79.9% | 25.8% | 4.9% | 99.4% | 89.5% | 73% | 34.1% | 20.7% | 32.4 | 11.9 | 19.7 | 16.2 | 15.6 | 0.0122 µM | 0.65 µM | 0.0579 µM | 0.326 µM | 0.183 µM
10 | COc1ccccc1Oc1c(NS(=O)(=O)c2ccc(C)cn2)nc(-c2ccncc2)nc1OC [SPP301] | 106% | 92.6% | 93.2% | 95.1% | 101% | 102% | 102% | 105% | 94.3% | 102% | 85.6% | 96.1% | 93.4% | 99% | 98% | 99.9% | 102% | 98.8% | 100% | 95.4% | 93.2% | 100% | 105% | 106% | 84.4% | 0 | 0 | 0 | 0 | 0.1 | > 10 µM | > 10 µM | > 10 µM | > 10 µM | > 10 µM
11 | CC(=O)Nc1cccc(Nc2ncnc(N3CCC(OCc4ccc(OC(F)(F)F)cc4)CC3)n2)c1C [TC-N-1752] | 105% | 95.8% | 93% | 104% | 31.5% | 95.8% | 102% | 100% | 94.4% | 107% | 93.9% | 102% | 87.1% | 97.8% | 107% | 96% | 98.7% | 95.2% | 94.4% | 99.3% | 94.7% | 97.8% | 94.5% | 101% | 80.4% | 3.4 | 0 | 0 | 0 | 0.5 | 3.47 µM | > 10 µM | > 10 µM | > 10 µM | > 10 µM
12 | Clc1ccc(C2=CCC[C@H]3CC[C@@H]2N3)cn1 [UB-165] | 98.2% | 97% | 93.1% | 95.5% | 102% | 101% | 102% | 95.6% | 100% | 103% | 108% | 107% | 91.3% | 93.2% | 100% | 101% | 107% | 97.1% | 97.5% | 102% | 92.2% | 97.7% | 96.8% | 93% | 102% | 0 | 0 | 0 | 0 | 0 | > 10 µM | > 10 µM | > 10 µM | > 10 µM | > 10 µM
13 | Cc1ccc(S(=O)(=O)Nc2nc3ccccc3nc2Nc2ccc3nsnc3c2)cc1 [XL147] | 107% | 101% | 90.9% | 97.7% | 99.5% | 93.7% | 94.1% | 100% | 96.3% | 95.2% | 93.3% | 113% | 98.6% | 88.6% | 97.6% | 96% | 103% | 104% | 99.2% | 95.1% | 96.1% | 107% | 98.6% | 105% | 92.9% | 0 | 0 | 0.4 | 0 | 0 | > 10 µM | > 10 µM | > 10 µM | > 10 µM | > 10 µM
14 | Cc1ccc(/C(=C\CN2CCCC2)c2cccc(/C=C/C(=O)O)n2)cc1 [acrivastine] | 102% | 98.2% | 102% | 98.3% | 95.6% | 98.1% | 87.9% | 99.8% | 85.3% | 112% | 98.2% | 98.1% | 104% | 116% | 99.1% | 100% | 103% | 98.4% | 102% | 103% | 87.6% | 92.3% | 95.4% | 86.8% | 115% | 0 | 0 | 0 | 0 | 0 | > 10 µM | > 10 µM | > 10 µM | > 10 µM | > 10 µM
